“Also recorded” adds a separate entry of the source. Read-outs that look alike come from different tables or passages of the source. Each block holds one compound with its values, some of them ahead of it.
Key:
[1] = system: FXN mRNA; design: method as in PMID 16921367; conditions: FRDA primary lymphocytes; cited from earlier work
[2] = system: FXN mRNA; conditions: cited from earlier work; for effect on FXN gene expression: lymphoid cells
[3] = cited from earlier work
[4] = system: H2AFY2 mRNA; test: qRT-PCR of H2AFY2 mRNA in FRDA neuronal cells; assay type: cell-based, human; conditions: 24 h
Method: (§1) All methods for iPSC derivation ([32]) and neuronal differentiation ([28], [33]) have been presented. […] Quantitative RT-PCR was performed as described ([28]), with the following primer pairs: • FXN: 5′-[…]-3′ and 5′-[…]-3′ • HDAC1: 5′-[…]-3′ and 5′-[…]-3′ • HDAC2: 5′-[…]-3′ and 5′-[…]-3′ • HDAC3: 5′-[…]-3′ and 5′-[…]-3′ • PCGF2: 5′-[…]-3′ and 5′-[…]-3′ • H2AFY2: 5′-[…]-3′ and 5′-[…]-3′
(§2) Data were normalized to RNA concentration and p values calculated using the t-test. Western blotting was performed as described ([28]), with antibodies to HDACs 1, 2, and 3 from Abcam (ab7028, ab7029, ab7030, respectively), used at a dilution of 1:5000. […] Protein concentrations were determined with the BCA assay (Thermo Scientific).

[5] = system: FXN mRNA; test: qRT-PCR of FXN mRNA in FRDA iPSC-derived neurons treated with HDAC inhibitors; assay type: cell-based, human; conditions: for effect on FXN mRNA levels: 16-day-old FRDA neurons, 24 h, varying concentrations (Figure 2); for up-regulation of FXN mRNA: 10 μM for 24 h, data not shown
Method: as §1, §2

[6] = system: PCGF2 mRNA; test: qRT-PCR of PCGF2 mRNA in FRDA neuronal cells; assay type: cell-based, human; conditions: 24 h
Method: as §1, §2

[7] = design: method as in PMID 27721337, PMID 22973455; conditions: in vivo, cited from earlier work
[8] = biological target: T1, Recombinant human HDAC1 (Homo sapiens, UniProt Q13547); test: HDAC1 deacetylase activity assay (acetyl-Lys(Ac)-AMC / Lys-C peptidase, progression curves)
[9] = biological target: T2, Recombinant human HDAC3/NCoR2 (Homo sapiens, UniProt O15379); conditions: cited from earlier work
[10] = biological target: T1, Recombinant human HDAC1; conditions: cited from earlier work
[11] = biological target: T2, Recombinant human HDAC3/NCoR2; test: HDAC3/NCoR2 deacetylase activity assay (acetyl-Lys(Ac)-AMC / Lys-C peptidase, progression curves)
[12] = system: FXN mRNA; design: method as in PMID 25159818; conditions: cited from earlier work
[13] = system: HDAC; design: method as in PMID 16921367, PMID 18953021; conditions: cited from earlier work
[14] = design: method as in PMID 25159818; conditions: preclinical studies; cited from earlier work
[15] = system: FXN mRNA; design: method as in PMID 12516053; conditions: cited from earlier work
[16] = fit of kobs versus inhibitor concentration
[17] = progression curves, mechanism 2
[18] = progression curves, mechanism 1

T2 sequence (O15379 whole entry): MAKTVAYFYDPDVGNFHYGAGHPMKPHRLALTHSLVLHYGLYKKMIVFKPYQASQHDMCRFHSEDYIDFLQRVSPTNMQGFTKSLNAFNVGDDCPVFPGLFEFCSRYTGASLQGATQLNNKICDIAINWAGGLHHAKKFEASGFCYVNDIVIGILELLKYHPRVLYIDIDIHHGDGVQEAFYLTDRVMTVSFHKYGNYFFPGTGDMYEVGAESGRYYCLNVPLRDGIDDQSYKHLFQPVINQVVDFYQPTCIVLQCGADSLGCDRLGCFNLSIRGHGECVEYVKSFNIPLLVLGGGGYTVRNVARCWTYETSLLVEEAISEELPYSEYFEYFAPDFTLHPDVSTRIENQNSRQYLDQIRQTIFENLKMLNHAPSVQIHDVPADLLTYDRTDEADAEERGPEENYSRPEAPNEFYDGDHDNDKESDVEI
T2 sequence (Q9Y618 395-489 partner limits assumed): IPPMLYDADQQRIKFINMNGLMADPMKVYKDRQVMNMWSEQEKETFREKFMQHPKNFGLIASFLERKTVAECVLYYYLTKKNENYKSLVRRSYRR
T1 sequence (Q13547 whole entry): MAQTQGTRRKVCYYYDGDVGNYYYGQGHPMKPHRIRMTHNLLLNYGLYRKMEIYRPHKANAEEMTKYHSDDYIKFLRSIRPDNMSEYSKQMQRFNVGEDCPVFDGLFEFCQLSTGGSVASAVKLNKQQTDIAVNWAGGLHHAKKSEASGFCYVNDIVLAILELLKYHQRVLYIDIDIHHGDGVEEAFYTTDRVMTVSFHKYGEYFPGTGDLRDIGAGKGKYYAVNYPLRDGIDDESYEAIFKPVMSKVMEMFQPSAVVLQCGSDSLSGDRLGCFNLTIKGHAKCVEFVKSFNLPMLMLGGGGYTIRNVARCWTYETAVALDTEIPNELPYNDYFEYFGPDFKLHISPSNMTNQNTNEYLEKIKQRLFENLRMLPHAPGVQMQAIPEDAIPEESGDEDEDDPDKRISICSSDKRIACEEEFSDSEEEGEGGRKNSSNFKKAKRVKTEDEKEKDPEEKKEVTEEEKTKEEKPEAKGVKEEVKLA

Compound: Nc1ccccc1NC(=O)CCCCCC(=O)Nc1ccccc1 [4b, N^1-(2-aminophenyl)-N^7-phenylheptanediamide]
FXN mRNA levels [1]: significantly increase FXN mRNA levels

Compound: Nc1ccccc1NC(=O)CCCCCCC(=O)Nc1ccccc1 [BML-210, N^1-(2-aminophenyl)-N^8-phenyloctanediamide]
FXN mRNA expression ([2]; FRDA lymphoblasts): significant increase

Compound: Nc1ccccc1NC(=O)/C=C/c1cn(C/C=C/c2ccccc2)nn1 [Click-1]
brain/plasma ratio [3]: > 0.7
H2AFY2 mRNA level ([4]; 5 μM (lower concentrations)): significantly down-regulate
FXN mRNA increase compared with HDACi 109 ([5]; FRDA neuronal cells, varying concentrations (Figure 6B)): equivalent activities; also recorded: no loss of activity
PCGF2 mRNA level ([6]; 5 μM (lower concentrations)): significantly down-regulate
metabolic conversion / benzimidazole formation [7]: stability to benzimidazole formation

inhibition mechanism HDAC1 [8, 16]: slow-on/slow-off inhibition mechanism 2
preference for HDAC1 over HDAC3 comparing IC50 values ([8]; from Table 1 values): ~ 75 fold
preference for HDAC1 over HDAC3 from Ki measurements ([8]; from Table 1 values): ~ 350 fold
k2 HDAC1 [8, 17]: k2 = 0.1675 min^−1
k−2 HDAC1 [8, 17]: k−2 = 0.0017 min^−1
inhibition mechanism HDAC3 [11, 16]: mechanism 1
k1 HDAC3 [11, 18]: k1 = 600 min^-1 M^−1
k−1 HDAC3 [11, 18]: k−1 = 0.0015 min^−1
Selectivity HDAC3 (from IC50) ([11]; ratio of IC50 HDAC1 to IC50 HDAC3, from data of refs 25, 26): 0.013
Compound: Nc1ccc(-c2ccccc2)cc1NC(=O)CCCCCC(=O)Nc1ccccc1 [HDACi 3, N^1-(4-aminobiphenyl-3-yl)-N^7-phenylheptanediamide]
IC50 [9]: 9.6 µM
effect on FXN mRNA levels [5]: no effect; also recorded: weakly active
IC50 [10]: 0.127 µM

Compound: Cc1ccc(NC(=O)CCCCCC(=O)Nc2ccccc2N)cc1 [HDACi 106]
inhibition mechanism HDAC1 [10]: slow-on/slow-off inhibitor
metabolic conversion / benzimidazole formation [7]: conversion of the active molecule into an inactive metabolic product

Compound: Cc1ccc(C(=O)NCCCCCC(=O)Nc2ccccc2N)cc1 [HDACi 109, N-(6-(2-aminophenylamino)-6-oxohexyl)-4-methylbenzamide]
metabolic conversion / benzimidazole formation [7]: conversion of the active molecule into an inactive metabolic product
metabolic conversion / benzimidazole formation ([7]; listed as 109/RG2833): conversion of the active molecule into inactive, potentially toxic metabolic products

Compound: Cc1ccc(C(=O)NCCCCCC(=O)Nc2ccc(F)cc2N)cc1 [HDACi 136, N-(6-(2-amino-4-fluorophenylamino)-6-oxohexyl)-4-methylbenzamide]
H2AFY2 mRNA level ([4]; 5 μM (lower concentrations)): inactive at lower concentrations
H2AFY2 mRNA level ([4]; 10 μM): moderately active
effect on FXN mRNA levels [5]: only a modest effect; also recorded: inactive
PCGF2 mRNA level ([6]; 5 μM (lower concentrations)): inactive at lower concentrations
PCGF2 mRNA level ([6]; 10 μM): moderately active

Compound: Nc1ccc(-c2cccs2)cc1NC(=O)CCCCCCNC(=O)c1cccnc1 [HDACi 233, N-(2-amino-5-(2-thienyl)phenyl)-7-nicotinoylamino-heptanamide]
up-regulation of FXN mRNA ([5]; FRDA neuronal cells): did not
selectivity for HDAC1 over HDAC3 [10]: > 200 fold
induction of FXN gene expression in FRDA neuronal cells [12]: weakly active

Compound: Nc1cc(F)ccc1NC(=O)/C=C/c1cnn(CC=Cc2ccccc2)c1 [HDACi 966, (E)-N-(2-amino-4-fluorophenyl)-3-(1-cinnamyl-1H-pyrazol-4-yl)acrylamide]
selectivity for HDAC3 over HDAC1/2 [9]: ~ 30 fold
up-regulation of FXN mRNA ([5]; FRDA neuronal cells): did not
induction of FXN gene expression in FRDA neuronal cells [12]: inactive

Compound: O=C(CCCCCCC(=O)Nc1ccccc1)NO [SAHA]
effect on FXN gene expression [2]: without effect on FXN gene expression

Compound: CC(/C=C/C(=O)NO)=C\[C@@H](C)C(=O)c1ccc(N(C)C)cc1 [TSA]
effect on FXN gene expression [2]: without effect on FXN gene expression
inhibition mechanism [13]: rapid-on/rapid-off inhibitors

Compound: c1ccc2[nH]cnc2c1 [benzimidazole]
risk category for inducing QTc prolongation [14]: high-risk category

Compound: NC(=O)c1cccnc1 [nicotinamide]
FXN mRNA levels ([2]; FRDA lymphoblasts): increases FXN mRNA levels

Compound: CCCC(=O)[O-].[Na+] [sodium butyrate]
ability to increase FXN mRNA expression [15]: only a modest effect

Source: PMC4350406, “Mechanism of Action of 2-Aminobenzamide HDAC Inhibitors in Reversing Gene Silencing in Friedreich’s Ataxia” (Frontiers in Neurology, 2015)
